According to US20050158435A1, “Process for producing sdg and foods and drinks containing the same” (Suntory Limited, priority 2002, published 2005):

Key:
Type in all cases: in vivo, rat
[1] = test system: ovariectomized rats; assay: Antiobesity effect: body weight changes in ovariectomized rats; conditions: forced oral administration once a day for 14 days after ovariectomy (FIG. 2)
Description: Female Wister-strain rats at 7 weeks of age were ovariectomized and treated with each sample once a day by forced oral administration using a metal gastric tube for 14 days after surgery. Each group consisted of 8 animals (n=8). The animals were weighed to evaluate the effect on obesity due to increased appetite after the menopause. The samples used were 17β estradiol as a positive control and genistein as a reference sample, which is a major compound of soybean isoflavone. The SDG sample was composition 4.

[2] = test system: ovariectomized rats; assay: Uterine weight in ovariectomized rats
Description: (§1) Wistar-strain female rats (Charles River Japan, Inc.) were used, among which 41 animals were ovariectomized at 6 weeks of age and 9 animals were sham-operated at the same age, and raised on not-purified chow (CE 2; Clea Japan). After a week, the ovariectomized rats were divided into […]. The sham-operated non-ovariectomized group […] was used as a positive control.
(§2) Group I and group V and non-ovariectomized group had free access for 4 weeks to a basic diet consisting of AIN-93M Mix purified diet without Ca (Oriental Yeast Co., Ltd.). Group II, group III and group IV were fed with the basic diet supplemented with 0.1% each of soybean isoflavone, SDG (composition 4), and a combination of soybean isoflavone and SDG, respectively. Group V was treated with 17β estradiol at 1 μg/day by subcutaneous administration through the period of ingesting the test diet. During the raising period, the temperature at the tail skin of the rat was measured with a precision thermometer BAT-12R (Physitemp).
At the end of the studies in Example 7, the rats were autopsied and measured for uterine weight.

[3] = test system: ovariectomized rats; assay: Bone mass (femoral dry weight) in ovariectomized rats; conditions: 4 weeks
Description: (§3) It is known that after the menopause bone mass decreases through the activation of osteoclasts due to estrogen decline and causes osteoporotic symptoms. Estrogen decline may disturb the balance of lipid metabolism to cause symptoms such as hyperlipidemia and hypercholesterolemia. Ovariectomized female rats are commonly used as model animals of menopausal symptoms because ovariectomy induces the above symptoms due to the decline of estrogen levels. […] Wistar-strain female rats (Charles River Japan, Inc.) were used, among which 34 animals were ovariectomized (OVX) at 6 weeks of age and 9 animals were sham-operated (Sham) at the same age, and raised on not-purified chow (CE 2; Clea Japan). After 2 weeks, the ovariectomized rats were divided into 4 groups (n=8-9) called groups I to IV. The sham-operated non-ovariectomized group (group V, n=9) was used as a positive control. Group I and group V were free access for 4 weeks to a basic diet consisting of AIN-93M Mix purified diet without Ca (Oriental Yeast Co., Ltd.). […] On the end date of raising the rats, they were weighed and then anatomized to collect blood and dissect the right femur. After adherent tissues were removed, the femur dissected from the rat's right leg was dried at 100° C. for 24 hours and weighed.

[4] = test system: ovariectomized rats; assay: Blood triglyceride levels in ovariectomized rats; conditions: 0.1% in diet, 4 weeks
Description: as §3, with “Evaluation of lipid metabolism-improving effect: Plasma was isolated” for “After adherent tissues were removed, the femur dissected”, “rat blood and assayed” for “the rat's right leg was dried at 100° C.”, “triglyceride by an automatic analyzer (Hitachi).” for “24 hours and weighed.”

[5] = test system: ovariectomized rats; assay: Hot flashes model: temperature at the tail skin of ovariectomized rats; conditions: 0.1% in diet, 4 weeks (FIG. 3)
Procedure: A sharp decline of estrogen levels after the menopause invites hormone imbalance and autonomic failure to cause vasomotor disturbance-like symptoms such as hot flashes. In experimental animals, ovariectomy of female rats induces a rise in the temperature at the tail skin and symptoms corresponding to hot flashes among menopausal symptoms. The temperature at the tail skin was measured in ovariectomized rats treated with SDG and soybean isoflavone.
as §1
as §2, with “Group V was treated with 17β estradiol at 1 μg/day by subcutaneous administration through the period of ingesting the test diet.” left out

Question: With `C[C@]12CC[C@@H]3c4ccc(O)cc4CC[C@H]3[C@@H]1CC[C@@H]2O` [17β estradiol] as the compound, how does the Body weight gain ([1]; 0.02 mg/kg) read?
Answer: body weight gain was inhibited

Question: And the Uterine weight ([2]; 1 μg/day subcutaneous administration, ***P < 0.001 vs. group I)?
Answer: 443.9 ± 28.8*** mg

Question: And the Uterine atrophy ([2]; autopsy at the end of Example 7)?
Answer: did not show uterine atrophy

Question: Which “Femoral dry weight (per 100 g body weight)” value ([3]; ovariectomized Wistar female rats, basic diet supplemented with 0.1% of sample) does the source give for “secoisolariciresinol diglycoside [composition 4]” here?
Answer: 90.9 ± 2.7 mg

Question: What about the “Inhibition of bone mass decline vs group I (ovariectomized control)” value ([3]; ovariectomized rats, 0.1% in diet) of the same compound?
Answer: tendency of inhibiting bone mass decline

Question: What about the “Inhibition of triglyceride increase vs group I” value [4] of the same compound?
Answer: significant inhibitory effect

Question: And the Blood triglyceride ([4]; plasma, *p<0.05, ** vs. group I)?
Answer: 32.0 ± 3.2* mg/dl

Question: What about the Body weight gain ([1]; 50 mg/Kg) of the same compound?
Answer: body weight gain was inhibited

Question: What about the “Rise in the temperature at the tail skin” value [5] of the same compound?
Answer: the rise was inhibited

Question: What about the Uterine weight ([2]; 0.1% in diet, 4 weeks) of the same compound?
Answer: 105.5 ± 6.8 mg

Question: For `O=c1c(-c2ccc(O)cc2)coc2cc(O)cc(O)c12` [genistein], which Body weight gain ([1]; 100 mg/Kg) is on record?
Answer: body weight gain was inhibited
